Values quoted from earlier work as cited in patent US20010046961A1, “Method for the treatment of solid tumors by albumin microparticles incorporating paclitaxel” (ACS DOBFAR S.p.A., priority 2000, published 2001).

Test system: head and neck cancer
Conditions: traditional treatment with Paclitaxel, for example head and neck cancer

CC(=O)O[C@H]1C(=O)[C@@]2(C)[C@H]([C@H](OC(=O)c3ccccc3)[C@]3(O)C[C@H](OC(=O)[C@H](O)[C@@H](NC(=O)c4ccccc4)c4ccccc4)C(C)=C1C3(C)C)[C@]1(OC(C)=O)CO[C@@H]1C[C@@H]2O [Paclitaxel]
treatment response percentage: 40%
